The values below come from paper PMC13408504, “Design, structure-based optimization and antiviral evaluation of potent inhibitors for the macrodomain Mac1 of SARS-CoV-2” (Nature Communications, 2026).

SMILES strings stand for the structures. “And” between values parts separate entries of the source, which are not always exact repeats. Equal values may be shown once. Bounds are passed on as bounds.

For data set [1], the system named is cellular NAD+ levels in CaLu-3 cells. The experiment in a line: Quantification of cellular NAD+ (enzymatic cycling kit, normalised to protein). The format is cell-based.
Data set [2] addresses T1, wildtype Mac1 (Severe acute respiratory syndrome coronavirus 2, UniProt P0DTD1). The format is biochemical, SARS-CoV-2.
In data set [3] the target is NADase from Neurospora crassa (Neurospora crassa, UniProt Q7S936). The format is biochemical.
Data set [4] deals with Mac1. The following applies: cited from earlier work.
The test system of data set [5] is CaLu-3 cells.
For data set [6] the following is noted: pH 7.3.
Data set [7] is described as follows: physchem. The following applies: pH 7.3.
A short description of data set [8]: in vitro. The following applies: human, pH 7.4.
The test system of data set [9] is pig liver esterase (PLE). As to conditions: pH 7.3.
Data set [10] deals with T2, Mac1 of SARS-CoV-2 (Severe acute respiratory syndrome coronavirus 2, UniProt P0DTD1). The experiment in a line: Fluorimetric microplate assay for Mac1 activity (α-NAD+ hydrolysis, post-reaction derivatisation). The format is biochemical.
Data set [11] deals with T2, Mac1 of SARS-CoV-2. The experiment in a line: biochemical. The following applies: pIC50 (±SD) for Mac1 inhibition.
The target in data set [12] is human MacroD1 (Homo sapiens, UniProt Q9BQ69). The format is biochemical.
The target in data set [13] is human MacroD2 (Homo sapiens, UniProt A1Z1Q3). The format is biochemical.
Data set [14] concerns the target T1, wildtype Mac1. The format is binding.
For data set [15], the system named is Mac1. As to conditions: cited from earlier work. The source holds these as a separate data set.

Sequence of human MacroD1 (Q9BQ69 whole entry): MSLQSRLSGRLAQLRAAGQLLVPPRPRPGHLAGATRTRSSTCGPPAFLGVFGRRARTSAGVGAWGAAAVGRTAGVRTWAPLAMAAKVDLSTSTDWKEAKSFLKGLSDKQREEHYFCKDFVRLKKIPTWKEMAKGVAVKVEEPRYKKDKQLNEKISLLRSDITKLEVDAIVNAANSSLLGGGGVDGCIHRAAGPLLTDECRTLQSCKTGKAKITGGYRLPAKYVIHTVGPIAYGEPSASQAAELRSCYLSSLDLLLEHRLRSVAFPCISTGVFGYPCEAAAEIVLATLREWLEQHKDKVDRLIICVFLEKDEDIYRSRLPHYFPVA
Sequence of human MacroD2 (A1Z1Q3 whole entry): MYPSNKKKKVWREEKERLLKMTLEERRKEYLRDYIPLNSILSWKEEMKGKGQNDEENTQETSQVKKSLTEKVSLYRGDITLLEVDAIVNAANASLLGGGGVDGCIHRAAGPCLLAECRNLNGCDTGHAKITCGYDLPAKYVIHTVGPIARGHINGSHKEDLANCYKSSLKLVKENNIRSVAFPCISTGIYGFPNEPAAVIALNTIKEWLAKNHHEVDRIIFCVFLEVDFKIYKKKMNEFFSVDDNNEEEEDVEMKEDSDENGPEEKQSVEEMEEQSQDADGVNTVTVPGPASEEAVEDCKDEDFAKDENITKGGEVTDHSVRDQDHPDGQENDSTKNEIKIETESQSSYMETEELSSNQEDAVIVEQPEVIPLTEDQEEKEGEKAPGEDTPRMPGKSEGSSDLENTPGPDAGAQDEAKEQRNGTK
Sequence of NADase from Neurospora crassa (Q7S936 20-243 limits assumed): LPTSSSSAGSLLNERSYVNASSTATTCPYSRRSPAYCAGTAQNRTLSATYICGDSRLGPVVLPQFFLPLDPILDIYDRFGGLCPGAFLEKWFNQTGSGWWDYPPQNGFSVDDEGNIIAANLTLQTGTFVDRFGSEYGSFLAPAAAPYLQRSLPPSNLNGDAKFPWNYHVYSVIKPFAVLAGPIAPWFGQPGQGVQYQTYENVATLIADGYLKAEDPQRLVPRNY

In the case of `O=C(/C=C/c1cccnc1)NCCCCC1CCN(C(=O)c2ccccc2)CC1` [FK866], the “reduction of cellular NAD levels” value in data set [1] is recorded as ~ 90%. Consider `NC(=O)c1ccc[n+]([C@@H]2O[C@H](COP(=O)([O-])OP(=O)(O)OC[C@H]3O[C@@H](n4cnc5c(N)ncnc54)[C@H](O)[C@@H]3O)[C@@H](O)[C@H]2O)c1` [compound 2, β-NAD^+], for which the “hydrolysis by Mac1 (in words)” value in data set [2] is “intact”. Besides, the “hydrolysis by NADase (in words)” value in [3] is given as “hydrolyzed”. Turning to `N#C[C@@]1(c2ccc3c(N)ncnn23)O[C@H](CO)[C@@H](O)[C@H]1O` [compound 3, GS-441524], the “affinity for Mac1 compared with ADPR 1 (in words)” value in data set [4] is listed as “affinity similar to ADPR 1”.

Consider `COP(=O)(O)OP(=O)(O)OC[C@H]1O[C@@](C#N)(c2ccc3c(N)ncnn23)[C@H](O)[C@@H]1O` [compound 4, β-methyl-GS-441524-DP], for which, in [5] (human, pH 7.4), the “time at which cellular uptake reached an equilibrium” value is 15 min.

What is called half-life is the time in which the quantity being followed falls by half. Read a high half-life as slow decline. Take `CCCCCCCCCCCC(=O)Oc1ccc(COP(=O)(OC)OP(=O)(O)OC[C@H]2O[C@@](C#N)(c3ccc4c(N)ncnn34)[C@H](O)[C@@H]2O)cc1` (stereo partly drawn) [compound 5, C11-AB-β-methyl-GS-441524-DP]: the “time at which incipient decomposition to GS-441524-MP 40 was discovered” value in [6] is 30 s. Moreover, in [7], the half-life was 61 h. The CC50 in data set [8] was > 50 µM. Moreover, in data set [5], the “decrease of β-NAD+ 2 levels” value worked out at 62%. In [5] (human, pH 7.4), the “GS-441524-MP 40 formed, share of the total of detectable 40 and deprotected compound” value amounted to 24%; the intracellular concentration lay in the range of 0.3 to 0.4 µM. Moreover, the “hydrolysis with pig liver esterase (in words)” value in [9] is reported as “successful”. In the case of `O=c1[nH]cnc2c1ncn2C1OC(COP(=O)(O)OP(=O)(O)OCC2OC(O)C(O)C2O)C(O)C1O` (stereo not drawn) [compound 10, inosine-5′-O-diphosphoribose], the “Inhibition of Mac1 (in words)” value in data set [10] is “did not inhibit Mac1”.

The term IC50 denotes the concentration that inhibits the measured activity by half. Lower therefore signals greater potency. With `Nc1nc(F)nc2c1ncn2C1OC(COP(=O)(O)OP(=O)(O)OCC2OC(O)C(O)C2O)C(O)C1O` (stereo not drawn) [compound 11, 2-F-ADPR], in data set [10], the IC50 was 191 µM. In [11], `Nc1ncnc2c1nc(-c1ccsc1)n2C1OC(COP(=O)(O)OP(=O)(O)OCC2OC(O)C(O)C2O)C(O)C1O` (stereo not drawn) [compound 12, 8-thiophen-3-yl-ADPR] had an IC50 of 251 µM.

As for `Nc1ncnc2c1nc(Br)n2C1OC(COP(=O)(O)OP(=O)(O)OCC2OC(O)C(O)C2O)C(O)C1O` (stereo not drawn) [compound 13, 8-Br-ADPR], the “Inhibition of human MacroD1 (in words)” value in [12] is reported as “low micromolar range”. Further, the “Inhibition of human MacroD2 (in words)” value in data set [13] is listed as “low micromolar range”. In turn, `Nc1ncnc2c1cc(Br)n2C1OC(COP(=O)(O)OP(=O)(O)OCC2OC(O)C(O)C2O)C(O)C1O` (stereo not drawn) [compound 14, 8-Br-7-deaza-ADPR] had a concentration for half-maximal inhibition (IC50) in data set [10] of 38 µM.

On to `Nc1ncnc2c1ncn2[C@@H]1O[C@H](COP(=O)(O)OP(=O)(O)OC[C@H]2O[C@@H](O)C(O)[C@H]2O)C(O)[C@@H]1OP(=O)(O)O` (stereo partly drawn) [compound 15, ADPR-2′-phosphate], for which the “affinity for Mac1 compared with ADPR 1 (in words)” value in data set [4] is on record as “slightly higher affinity than ADPR 1”. Further, in data set [14], the TΔS is -5.4 ± 1.2 kcal/mol and the ΔH is -11.5 ± 0.2 kcal/mol. As to `Nc1ncnc2c1ncn2[C@H]1C[C@H](O)[C@@H](COP(=O)(O)OP(=O)(O)OC[C@H]2OC(O)[C@H](O)[C@@H]2O)O1` (stereo partly drawn) [compound 16, 2′-deoxy-ADPR], in data set [14], the TΔS is -5.9 ± 0.2 kcal/mol and the ΔH was -12.5 ± 0.2 kcal/mol. For `Nc1ncnc2c1ncn2[C@@H]1O[C@H](COP(=O)(O)OP(=O)(O)O)[C@@H](O)[C@H]1O` [compound 18, ADP], the “thermal stabilisation of Mac1 (in words)” value in data set [15] is on record as “not thermally stabilised”. Besides, the “pIC50 (±SD) for Mac1 inhibition” value in [10] was 2.44 and 2.3 ± 0.1. For `Nc1ncnc2c1ccn2C1OC(COP(=O)(O)OP(=O)(O)OCC2OC(O)C(O)C2O)C(O)C1O` (stereo not drawn) [compound 22, 7-Deazaadenosine DP ribose], in [10], the half-maximal inhibitory concentration (IC50) was 14.5 µM. Regarding `Nc1ncnc2c1ncn2[C@@H]1O[C@H](COP(=O)(O)OP(=O)(O)O[C@H]2O[C@H](CO)[C@@H](O)[C@H](O)[C@H]2O)[C@@H](O)[C@H]1O` [compound 23, ADP-glucose], the “Inhibition of Mac1 (in words)” value in data set [10] was “no detectable inhibition”. For the compound `Nc1ncnc2c1ncn2[C@@H]1O[C@H](COP(=O)(O)OP(=O)(O)OC2CCCC2)[C@@H](O)[C@H]1O` [compound 27, β-cyclopentyl-ADP], in [10], the “pIC50 (±SD) for Mac1 inhibition” value stood at 2.79. For the compound `Nc1ncnc2c1ncn2[C@@H]1O[C@H](COP(=O)(O)CP(=O)(O)O)[C@@H](O)[C@H]1O` [compound 34, α-β methylene-ADP], the “Inhibition of Mac1 (in words)” value in data set [10] is listed as “none of these compounds inhibited Mac1”. In data set [10], `Nc1ncnc2c1ncn2[C@@H]1O[C@H](COP(=O)(O)OP(=O)(O)S)[C@@H](O)[C@H]1O` (stereo partly drawn) [compound 35, adenosine-5′-O-(2-thiodiphosphate)] had an IC50 of 3890 µM. Consider `Nc1ncnc2c1ncn2[C@@H]1O[C@H](CO)[C@@H](O)[C@H]1O` [compound 38, adenosine], for which the “Inhibition of Mac1 (in words)” value in [10] is on record as “showed no inhibition”. Regarding `Nc1ncnc2c1ncn2[C@@H]1O[C@H](COP(=O)(O)O)[C@@H](O)[C@H]1O` [compound 39, AMP], the “Inhibition of Mac1 (in words)” value in data set [10] is reported as “showed no inhibition”. The compound `N#C[C@@]1(c2ccc3c(N)ncnn23)O[C@H](COP(=O)(O)O)[C@@H](O)[C@H]1O` [compound 40, GS-441524-monophosphate] gave a 50% inhibitory concentration (IC50) in [10] of 43.7 µM.
